Laboratory results: patent US5773421A, “Antifungal fusacandins” (Abbott Laboratories, priority 1995, dated 1998)
In brackets after ≈: the same amount, converted by molar mass. Like-named read-outs stand apart in the source and are kept apart here.

How the values were obtained:
Test in all cases: MIC by agar dilution method
Format in all cases: cell-based
Candida albicans CCH 442 = settings: CCH442; Table 6c, 3rd value column (head printed II); III Candida albicans CCH 442; agar dilution; read-out: MIC II
Protocol: (§1) Minimal inhibitory concentrations (MICs) were determined by an agar dilution method. The test compounds were serially diluted in MeOH and 0.2 mL portions were mixed with 20 mL of molten, cooled Sabouraud dextrose agar (Difco). Yeast cell inoculum was prepared by growing cultures on Sabouraud dextrose agar for 18 hours at 32° C. and suspending the cells in phosphate buffered saline. Filamentous fungi were grown under the same conditions for 4 days to obtain spores. The inoculum level for all cultures was adjusted to 10^4 cells using a Petroff-Hauser cell counter. The glutarimide antifungal compounds cycloheximide or amphotericin B were used as a control. Inoculated test plates were incubated at 32° C. and examined after 20 hours.

[1] = test system: Candida albicans ATCC 38247
Protocol: as §1

Candida albicans 579a = settings: read-out: MIC II
Protocol: as §1

[2] = test system: Candida albicans ATCC 62376
Protocol: as §1

[3] = test system: Candida albicans ATCC 10231
Protocol: as §1

[4] = ATCC38247, Table 6c, IV Candida albicans ATCC 38247, agar dilution, read-out: MIC IV
[5] = Table 6c, II Candida albicans 579a, agar dilution
[6] = ATCC62376, Table 6c, V Candida albicans ATCC 62376, agar dilution, read-out: MIC V
[7] = ATCC10231, Table 6c, I Candida albicans ATCC 10231, agar dilution, read-out: MIC I

Q: What does the source list for CCCCC/C=C/C=C/[C@@H](O)C/C=C/C=C/C(=O)O[C@@H]1[C@@H](O)[C@H](c2c(O)cc(O)cc2CO)O[C@H](CO)[C@H]1O[C@@H]1O[C@H](COC(=O)c2ccc(-c3ccc4ccccc4c3)cc2)[C@H](O)[C@H](O)[C@H]1O[C@@H]1O[C@H](CO)[C@H](O)[C@H](O)[C@H]1O [Example 29]?
A: MIC (Candida albicans CCH 442): 1.56 µg/mL (≈ 1.41 µM); MIC [1, 4]: 1.56 µg/mL (≈ 1.41 µM); MIC (Candida albicans 579a; [5]): 0.78 µg/mL (≈ 0.707 µM); MIC [2, 6]: 1.56 µg/mL (≈ 1.41 µM); MIC [3, 7]: 1.56 µg/mL (≈ 1.41 µM)

Q: Which results are given for CCCCC/C=C/C=C/[C@@H](O)C/C=C/C=C/C(=O)O[C@@H]1[C@@H](O)[C@H](c2c(O)cc(O)cc2CO)O[C@H](CO)[C@H]1O[C@@H]1O[C@H](COC(=O)CCCCCCCCC)[C@H](O)[C@H](O)[C@H]1O[C@@H]1O[C@H](CO)[C@H](O)[C@H](O)[C@H]1O [Example 13]?
A: MIC (Candida albicans CCH 442): 6.25 µg/mL (≈ 6.08 µM); MIC [1, 4]: 12.5 µg/mL (≈ 12.2 µM); MIC (Candida albicans 579a; [5]): 12.5 µg/mL (≈ 12.2 µM); MIC [2, 6]: 12.5 µg/mL (≈ 12.2 µM); MIC [3, 7]: 12.5 µg/mL (≈ 12.2 µM)

Q: With CCCCC/C=C/C=C/[C@@H](O)C/C=C/C=C/C(=O)O[C@@H]1[C@@H](O)[C@H](c2c(O)cc(O)cc2CO)O[C@H](CO)[C@H]1O[C@@H]1O[C@H](COC(=O)c2ccc3ccccc3c2)[C@H](O)[C@H](O)[C@H]1O[C@@H]1O[C@H](CO)[C@H](O)[C@H](O)[C@H]1O [Example 19] as the molecule, how does the MIC (Candida albicans CCH 442) read?
A: 1.56 µg/mL (≈ 1.52 µM)

Q: And the MIC [1, 4]?
A: 0.78 µg/mL (≈ 0.759 µM)

Q: What about the MIC (Candida albicans 579a; [5]) of the same molecule?
A: 0.78 µg/mL (≈ 0.759 µM)

Q: And the MIC [2, 6]?
A: 3.12 µg/mL (≈ 3.04 µM)

Q: What about the MIC [3, 7] of the same molecule?
A: 3.12 µg/mL (≈ 3.04 µM)

Q: What does the source list for CCCCC/C=C/C=C/C(=O)OC[C@H]1O[C@@H](O[C@H]2[C@H](OC(=O)/C=C/C=C/C[C@H](O)/C=C/C=C/CCCCC)[C@@H](O)[C@H](c3c(O)cc(O)cc3CO)O[C@@H]2CO)[C@H](O[C@@H]2O[C@H](CO)[C@H](O)[C@H](O)[C@H]2O)[C@@H](O)[C@H]1O [Example 11]?
A: MIC (Candida albicans CCH 442): 1.56 µg/mL (≈ 1.52 µM); MIC [1, 4]: 1.56 µg/mL (≈ 1.52 µM); MIC (Candida albicans 579a; [5]): 0.78 µg/mL (≈ 0.762 µM); MIC [2, 6]: 3.12 µg/mL (≈ 3.05 µM); MIC [3, 7]: 1.56 µg/mL (≈ 1.52 µM)

Q: Which MIC (Candida albicans CCH 442) does the source give for CCCCC/C=C/C=C/[C@@H](O)C/C=C/C=C/C(=O)O[C@@H]1[C@@H](O)[C@H](c2c(O)cc(O)cc2CO)O[C@H](CO)[C@H]1O[C@@H]1O[C@H](COC(=O)c2ccc(-c3ccccc3)cc2)[C@H](O)[C@H](O)[C@H]1O[C@@H]1O[C@H](CO)[C@H](O)[C@H](O)[C@H]1O [Example 30] here?
A: 0.78 µg/mL (≈ 0.741 µM)

Q: And the MIC [1, 4]?
A: 1.56 µg/mL (≈ 1.48 µM)

Q: And the MIC (Candida albicans 579a; [5])?
A: 0.78 µg/mL (≈ 0.741 µM)

Q: What about the MIC [2, 6] of the same molecule?
A: 0.78 µg/mL (≈ 0.741 µM)

Q: And the MIC [3, 7]?
A: 0.78 µg/mL (≈ 0.741 µM)

Q: Which results are given for CCCCC/C=C/C=C/[C@@H](O)C/C=C/C=C/C(=O)O[C@@H]1[C@@H](O)[C@H](c2c(O)cc(O)cc2CO)O[C@H](CO)[C@H]1O[C@@H]1O[C@H](COC(=O)c2ccc(-c3ccc(OCCCCCCCC)cc3)cc2)[C@H](O)[C@H](O)[C@H]1O[C@@H]1O[C@H](CO)[C@H](O)[C@H](O)[C@H]1O [Example 38]?
A: MIC (Candida albicans CCH 442): 25 µg/mL (≈ 21.2 µM); MIC [1, 4]: 50 µg/mL (≈ 42.3 µM); MIC (Candida albicans 579a; [5]): 25 µg/mL (≈ 21.2 µM); MIC [2, 6]: 12.5 µg/mL (≈ 10.6 µM); MIC [3, 7]: 25 µg/mL (≈ 21.2 µM)

Q: How did the MIC (Candida albicans CCH 442) turn out when CCCCC/C=C/C=C/[C@@H](O)C/C=C/C=C/C(=O)O[C@@H]1[C@@H](O)[C@H](c2c(O)cc(O)cc2CO)O[C@H](CO)[C@H]1O[C@@H]1O[C@H](COC(=O)c2ccc3c(ccc4ccccc43)c2)[C@H](O)[C@H](O)[C@H]1O[C@@H]1O[C@H](CO)[C@H](O)[C@H](O)[C@H]1O [Example 25] was run?
A: 0.78 µg/mL (≈ 0.724 µM)

Q: What about the MIC ([1]; Candida albicans, ATCC38247, read-out: MIC IV) of the same molecule?
A: 1.56 µg/mL (≈ 1.45 µM)

Q: What about the MIC (Candida albicans 579a; Candida albicans, 579A) of the same molecule?
A: 0.78 µg/mL (≈ 0.724 µM)

Q: And the MIC ([2]; Candida albicans, ATCC62376, read-out: MIC V)?
A: 1.56 µg/mL (≈ 1.45 µM)

Q: And the MIC ([3]; Candida albicans, ATCC10231, read-out: MIC I)?
A: 1.56 µg/mL (≈ 1.45 µM)
